The values below come from ChEMBL document CHEMBL3046384, “Pharmacophore modeling and structure-based virtual screening for a novel switch region target of bacterial RNA polymerase” (Med Chem Res, 2012).

Each structure is given as a SMILES string.

A short description of the assay: Inhibition of RNA polymerase of Bacteria.

What is called IC50 is the midpoint of a concentration-inhibition curve. The low end stands for higher potency, the high end for lower potency. The molecule `C/C(=C\Cc1ccccc1)CCC(=O)C[C@H]1C[C@H](O)C/C(C)=C/C/C=C/C/C(CC(=O)O)=C\C(=O)O1` [RIPOSTATIN] registered a half-inhibitory concentration (IC50) of 800 nM. That is a sub-micromolar value.

For the molecule `C/C=C/C/C=C(\C)C(O)CC/C(C)=C/C=C(\C)C(=O)c1c(O)cc([C@H](C)CC/C=C/NC(=O)OC)oc1=O` (stereo partly drawn) [CORALLOPYRONIN A], the IC50 turned out to be 4000 nM.

As for `CCC/C(C)=C/C=C(\C)C(=O)c1c(O)cc([C@H](C)CC/C=C/NC(=O)OC)oc1=O` [MYXOPORIN A], the IC50 turned out to be 1000 nM.
